Laboratory results taken from patent US20230413819A1, “METHODS FOR CONTROLLING FLEA AND TICK INFESTATIONS IN A MAMMAL” (In the Bowl Animal Health, Inc., priority 2021, published 2023).

Assays:
Ctenocephalides felis = assay: Efficacy of spinosyn per os to dogs against Ctenocephalides felis, comb counts of live adult fleas (Example 2); format: in vivo; settings: for percent reduction in live adult flea counts: by the day 14 comb count
From the text: (§1) Methods: A pool of 40 dogs are to be preliminarily infested with ˜100 unfed adult C. felis in order to produce a pool of dogs that can suitably sustain a reliable infestation rate of approximately 50% of live fleas over a 48-hour period. The dogs with the highest live flea counts are to be randomly allocated to 4 treatment groups (6 dogs per group) based on their pre-treatment flea counts from experimental infestations. The first treatment group is to be the control group and groups 2-4 are to be the test groups.
The dogs are to be housed individually during the study period and are to be fed a commercial dry dog food ration with ad libitum access to water.
Dogs in the control group are not to receive a spinosyn or any other flea control treatment. Each dog in test groups 2-4 is to be offered its daily ration (dry food) and the individual doses of liquid formulation are to be administered after the individual dog has eaten at least 25% of its total daily ration. After receiving the dose of a spinosyn the dogs are to be allowed to continue eating. This mimics incorporating the spinosyn in feed. Each dog in test groups 2-4 and the control group is to be experimentally infested with 100 unfed adult fleas on test days −1, 5, 12, 19, 28 and 35. Comb counts for live adult fleas are to be conducted on days 2, 7, 14, 21, 30 and 37. The final experimental infestation is to occur five days after the last daily dose of spinosyn.

C. felis = assay: Efficacy of spinosyn in medicated feed dosed at 0.5 mg/kg, comb counts of live adult fleas (Example 3); format: in vivo; settings: dogs
From the text: as §1, with “pool of dogs are” for “pool of 40 dogs are”, “pool of 18 dogs that” for “pool of dogs that”, “allocated to 3 groups (6” for “allocated to 4 treatment groups (6”, “and groups 2-3 are to” for “and groups 2-4 are to”
The dogs are to be housed individually during the study period and are to have ad libitum access to water.
There is to be an initial acclimation period of at least 4 days during which dogs in test groups 2 and 3 are to be transitioned from a standard certified commercial chow to an unmedicated version of the daily feed. During the acclimation period, the dogs are to be allowed 1 hour to consume the feed, after which the dogs' acceptance of the feed will be observed and recorded.
Dogs in the control group are not to receive a spinosyn or any other flea control treatment. On days 0-29, each dog in test groups 2 and 3 is to be offered its daily feed containing spinosyn for a period of 1 hour. On days 30-37 all dogs will be given regular dog food, without spinosyn, or a physiologically acceptable derivative thereof […]

For spinosad, the “percent reduction in live adult flea counts” value (from here on “percent reduction”) (Ctenocephalides felis; Group 2, 0.25 mg/kg daily oral) was 100%, the “efficacy (reduction in live adult flea counts)” value (Ctenocephalides felis; Group 3, 0.50 mg/kg daily oral days 0-29, day 37, after wash out period) was “over 98%” and the “percent reduction” value (Ctenocephalides felis; Group 3, 0.50 mg/kg daily oral) was 100%. For the same substance, the “efficacy (reduction in live adult flea counts)” value (Ctenocephalides felis; Group 4, 1.0 mg/kg daily oral days 0-29, day 37, after wash out period) was “over 98%”, the “percent reduction” value (Ctenocephalides felis; Group 4, 1.0 mg/kg daily oral) was 100% and the “efficacy (reduction in live adult flea counts)” value (C. felis; Group 2, 0.5 mg/kg daily feed formulation 1, by the 14-day comb count) was “over 90%”. For the same substance, the “efficacy (reduction in live adult flea counts)” value (C. felis; Group 3, 0.5 mg/kg daily feed formulation 2, by the 14-day comb count) was “over 90%”.
